Experimental data taken from ChEMBL document CHEMBL3507680, “University of Dundee, Gates Library screen for HepG2 cell viability”.

Experiment: Human HepG2 cell viability assay in 384 well format
Format: toxicity, cell-based
Design: dose 125 nL, time 70.5 hour; concentration not given beside the values
Details: HepG2 cells, read-out: Inhibition

Row | SMILES | cytotoxicity at 70.5 h [%]
1 | O=C(Cc1ccsc1)N1CCOC(c2nc(-c3ncccn3)no2)C1 (stereo unspecified) | -2.86
2 | CC(=O)N1CC(=O)N(c2cnn(C)c2)CC12CCN(Cc1ccco1)C2 (stereo unspecified) | -16.8
3 | Cc1ccc(SCC2CNc3nc4ccccc4c(=O)n32)c(C)c1 (stereo unspecified) | 20
4 | Cc1nn(C)c2c(N3CCN(C(=O)C4CCC4)CC3)ncnc12 | -5.94
5 | c1ccc(CN2CCCn3nnc(CNc4ncccn4)c3C2)nc1 | -87.8
6 | CC1c2cccn2CCN1S(=O)(=O)N1CCCCCC1 (stereo unspecified) | -14.2
7 | CNC(=O)N1CCC2(CC1)c1ncc(-c3cccc(F)c3)n1CCN2C | -1.6
8 | COCCCNC(=O)CN(C)C(=O)c1cc(Cl)ccc1O | 0.174
9 | CS(=O)(=O)CCC(=O)N1C[C@@H]2CC[C@H](C1)N(Cc1ccccn1)C2=O | 14.6
10 | CC1(C(=O)N2CCOCC2)CN(Cc2c[nH]cn2)CCO1 (stereo unspecified) | -0.532
11 | Cc1ncc(CNC(=O)CCc2c(C)noc2C)c(C2CCCN2C)n1 (stereo unspecified) | -3.48
12 | COc1ccccc1N1CCN(C(=O)Cn2nc(C)c(Cl)c2C)CC1 | 11.3
13 | CSc1[nH]c(=O)c(C(=O)N2CCCC2c2cccs2)cc1C#N (stereo unspecified) | -2.03
14 | COc1cc(OC)cc(-n2ccnc2-c2cc3n(n2)CCNC3)c1 | 19.3
15 | COc1cccc2c1OCC(CNC(=O)Cc1c(C)nc(N)nc1C)C2 (stereo unspecified) | -7.12
16 | COC(=O)NCC(=O)NCC(C)(C)c1cccc(Br)c1 | -0.269
17 | CNC(=O)c1cc2c(nc1N(C)C)CCN(S(=O)(=O)N(C)C)CC2 | 4.98
18 | CCn1ccc(-c2nnc(SCC(=O)Nc3ccc(C)cc3)n2CC)n1 | -13.9
19 | Cc1nnc(N2CCC(NS(C)(=O)=O)CC2)c(C#N)c1C | -5.64
20 | C[C@@H]1CN(CCc2ccccc2)C[C@]12CCN(CC(=O)N(C)C)C2=O | -12.6
21 | Cc1ccc(-c2cnn(CC(=O)NC(C)C)c2)cc1 | -3.29
22 | CCc1ccccc1NC(=O)c1cnn(C)c1C | -7.12
23 | CCOc1ccc(OC2CCCN(c3cnn(C)c3)C2=O)cc1 (stereo unspecified) | 10.6

Row | SMILES | cytotoxicity at 70.5 h [%]
24 | CCOCc1ccc(NCc2cnc(N3CCN(C)CC3)nc2)cc1 | -3.75
25 | CCCN(CCS(C)(=O)=O)C1CCc2ccccc2C1 (stereo unspecified) | -0.462
26 | c1cc(N2CCCC2c2cnccn2)ncn1 (stereo unspecified) | -10
27 | CC(C)CNc1nc2c(cc1C(=O)NCC1CC1)CCNCC2 | 24.9
28 | COc1ccccc1OCCCn1c(C)c(C)oc1=O | 2.36
29 | CC(C)(C)CNC(=O)CNC(=O)C1CC1 | 0.566
30 | CCC(Nc1cccc(OC)c1)C(=O)NCc1ccc2c(c1)OCO2 (stereo unspecified) | -8.45
31 | O=C(CCC1CCCO1)NCCCC(=O)Nc1ccc(Cl)cc1 (stereo unspecified) | -12
32 | CC(C)c1nccn1C1CCCN(C(=O)c2cn3cccnc3n2)C1 (stereo unspecified) | -3.43
33 | Cc1cc(CNc2cncc(C(=O)N(C)C)n2)c2[nH]c(C)c(C)c2c1 | 27.8
34 | CC(C)(C)CC(=O)NCC(=O)Nc1ccn(Cc2ccncc2)n1 | -20.8
35 | Cc1ncsc1CN1CCOC(C)(C(N)=O)C1 (stereo unspecified) | -1.13
36 | Cc1c(C(C)NC(=O)Nc2ccc(F)c(F)c2)cnn1C (stereo unspecified) | -3.96
37 | CC(=O)c1c(C)nn(S(=O)(=O)c2ccc(Cl)cc2)c1C | 3.92
38 | N#Cc1ccc(CN2CCCC(Cn3cncn3)C2)c(F)c1 (stereo unspecified) | 8.28
39 | Cc1c(C(=O)O)nnn1Cc1cccc(C(F)(F)F)c1 | -12.7
40 | COCC(=O)N1CCC2(CC1)CC(CC(=O)NC1CC1)c1ccccc12 (stereo unspecified) | -18.5
41 | CC(=O)N1CCCCCC1C1CCN(Cc2nc(C(C)C)no2)CC1 (stereo unspecified) | 0.62
42 | Cc1nccc(N2CCC(=O)N(Cc3ccc(F)cc3)C(C(C)C)C2)n1 (stereo unspecified) | -2.7
43 | CC1(C(=O)NCCc2ccc(F)cc2)CCOCC1 | -7.61
44 | CCc1nc(C2CCCN2C(=O)CCNS(C)(=O)=O)no1 (stereo unspecified) | 0.333
45 | COc1cc(C)nc(N2CCN(C(=O)CNC(C)(C)C)CC2)n1 | -15.6
46 | Cc1nc(C)n(CC2CCCN2CCCc2nc3ccccc3o2)n1 (stereo unspecified) | -5.85
